Experimental data reported in patent US12281084B2, “Acetyl-CoA synthetase 2 (ACSS2) inhibitors and methods using same” (The Wistar Institute, priority 2019, dated 2025).
Entries after “also recorded” stand apart in the source; their conditions may differ.

What was measured:
MDA-MB-468 cells = assay: 13C2-acetate tracing in MDA-MB-468 cells; format: cell-based, human; details: MDA-MB-468 cells (FIG. 11D)
Protocol: (§1) All metabolomic experiments were performed in serum-like modified Eagle's medium (SMEM). SMEM contains 54 different nutrients that are found in the bloodstream at concentrations that are physiologically relevant to humans. SMEM was supplemented with 10% or 1% fetal bovine serum (FBS; Life Technologies). Cells were grown in normoxia (atmospheric oxygen) or hypoxia (1% oxygen) while being incubated in uniformly labeled ^13C2-acetate (0.100 mM; Cambridge Isotope Laboratories). Lengths of incubation are described in the figure legends. For extraction of metabolites from cultured cells, SMEM medium was aspirated and cells were washed once in ice-cold PBS. Metabolites were extracted by adding a solution of LC-MS grade methanol/acetonitrile/water (5:3:2) to the well. […]
(§2) LC-MS analysis was performed on a Q Exactive Hybrid Quadrupole-Orbitrap HF-X MS (ThermoFisher Scientific) equipped with a HESI II probe and coupled to a Vanquish Horizon UHPLC system (ThermoFisher Scientific). […] Samples were analyzed in full MS scan with polarity switching at scan range 65 to 975 m/z; 120,000 resolution; automated gain control (AGC) target of 1E6; and maximum injection time (max IT) of 100 milliseconds. Identification and quantitation of metabolites was performed using an annotated compound library and TraceFinder 4.1 software. […]

sgACSS2 Brpkp110 tumors = assay: sgACSS2 (Acss2 knockout) Brpkp110 tumor xenograft growth in NSG mice; format: in vivo, mouse; details: tumors lacking ACSS2 expression (FIG. 5F)
Excerpt: CRISPR-Cas9 pools of Brpkp110 and A7C11 were generated using single guide RNAs against exon 1 in mouse Acss2. Cas9 and guide RNAs were introduced into Brpkp110 and A7C11 cell by lentiviral infection. Briefly, HEK293T cells were transfected (Lipofectamine 2000) with psPAX2, pVSV-G, and pLentiCRISPRV2-blast containing a single guide RNA cloned into the BsmBI site (GE Healthcare). Transduced pools of Brkp110 and A7C11 cells were selected using blasticidin S.
For BT474 mouse xenograft studies 5-6 week old female NSG […] were anesthetized and one 17β-estradiol 60 day release pellet (Innovative Research of America Cat. No. SE-121) was injected subcutaneously via 10 gauge precision trochar into the lateral side of the neck between the ear and shoulder. 24 hours later 10^5 BT474 luciferase positive cells in 100 μl PBS:matrigel (growth factor reduced) were injected subcutaneously into the hind limb. For A7C11 and Brpkp110 xenografts, 5×10^5 cells in 100 μl PBS:Matrigel (growth factor reduced Corning Cat. No. 356231) were subcutaneously injected into the hindlimb of 5-6 week old female NSG mice […]. […] Tumors were measured thrice weekly via caliper measurement and tumor volume calculated as (L×W^2)/2 (where L is the longer of the 2 measurements). […]

BT474 cells = assay: RNA sequencing of BT474 cells under hypoxia and low lipid stress; format: cell-based, human; details: H1, RNA sequencing
Protocol: ACSS2 affects histone and transcription factor acetylation in the nucleus of cells which then affects gene transcription. It was thus tested if inhibition of ACSS2 affects hypoxia and lipid depletion induced transcriptional stress responses. BT474 cells were incubated in normoxic, nutrient replete conditions (N10) and in hypoxic, low lipid conditions (H1). […] Additional analysis also found significant upregulation of 30 genes related to fatty acid synthesis (FIG. 3D).
It was then compared how many of the 1075 hypoxia and low lipid stress responsive genes were affected by siRNA mediated knockdown of ACSS2 (siACSS2) and VY-3-135 treatment.

SKBr3 cells = assay: 13C2-acetate tracing in SKBr3 cells; format: cell-based, human; details: 100 μM 13C2-acetate, 24 hr, N10 or H1 (FIG. 2B)
Protocol: as §1, §2

CCn1c(C(O)(c2ccccc2)c2ccccc2)nc2ccc(C(=O)NC[C@@H](C)O)cc21 [VY-3-135, (R)-1-ethyl-2-(hydroxydiphenylmethyl)-N-(2-hydroxypropyl)-1H-benzo[d]imidazole-6-carboxamide]
incorporation of 13C2-acetate into UDP-GlcNAc (MDA-MB-468 cells): able to block incorporation of ^13C2-acetate into UDP-GlcNAc to nearly the levels of unlabeled cells | sgACSS2 Brpkp110 tumor growth (sgACSS2 Brpkp110 tumors): did not further affect the growth of Brpkp110 sgACSS2 tumors; also recorded: no further effect on tumor growth | transcriptional regulation of genes in response to hypoxia and low lipid stress (BT474 cells): has a minimal effect on the transcriptional regulation of genes in response to hypoxia and low lipid stress | fatty acid synthesis from acetate (13C2-acetate labeling of palmitate) (SKBr3 cells): completely blocked fatty acid synthesis from acetate
